Patent publication US20250248970A1, “NOVEL SUBSTITUTED FLUORINATED N-PROPYL-PYRROLIDINE COMPOUNDS, PROCESSES FOR THEIR PREPARATION AND THERAPEUTIC USES THEREOF” (SANOFI, priority 2022, published 2025)

Experiments:
ERα = molecular target: T1, ERα (Homo sapiens, UniProt P03372); test: Estrogen receptor degradation activity (breast cancer cell ERα in cell western assay); format: cell-based; conditions: MCF7 cells, 0.3 μM, 4 hours, % of ERα levels decrease relative to fulvestrant
T1 construct: host or cells: MCF7
T1 sequence (P03372 1-595): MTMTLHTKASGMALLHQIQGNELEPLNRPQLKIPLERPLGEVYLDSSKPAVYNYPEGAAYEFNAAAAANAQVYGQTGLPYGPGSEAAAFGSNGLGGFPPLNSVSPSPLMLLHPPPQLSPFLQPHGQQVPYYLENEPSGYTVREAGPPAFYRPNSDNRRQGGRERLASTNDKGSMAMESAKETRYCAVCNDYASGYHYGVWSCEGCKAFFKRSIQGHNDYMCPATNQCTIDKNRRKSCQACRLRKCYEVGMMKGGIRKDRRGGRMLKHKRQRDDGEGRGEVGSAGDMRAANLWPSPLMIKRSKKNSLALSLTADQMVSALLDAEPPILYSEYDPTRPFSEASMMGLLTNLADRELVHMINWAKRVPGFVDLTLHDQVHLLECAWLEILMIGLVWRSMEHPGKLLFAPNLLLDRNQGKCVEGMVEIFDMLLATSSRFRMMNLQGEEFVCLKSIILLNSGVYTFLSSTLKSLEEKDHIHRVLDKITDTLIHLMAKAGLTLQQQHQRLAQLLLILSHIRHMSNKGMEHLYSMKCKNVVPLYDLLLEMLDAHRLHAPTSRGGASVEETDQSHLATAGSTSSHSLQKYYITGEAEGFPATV
Experimental: Said test involves measuring the in vitro degradation activity of the compounds of the Table 1a.
The measurements of the degradation activities were made using a breast cancer cell ERα in cell western assay as described hereunder.
MCF7 cells (ATCC) were seeded in 384 wells microplate (collagen coated) at a concentration of 10000 cells/30 μL per well in red phenol free MEM alpha medium (invitrogen) containing 5% charcoal dextran striped FBS. The following day, 9 points serial 1:5 dilution of each compound was added to the cells in 2.5p L at final concentrations ranging from 0.3-0.0000018 μM (in table 2), or 0.1 μM for fulvestrant (using as positive control). At 4 hours post compound addition the cells were fixed by adding 25 μL of formalin (final concentration 5% formalin containing 0.1% triton) for 10 minutes at room temperature and then washed twice with PBS. Then, 50 μL of LI-COR blocking buffer containing 0.1% Triton was added to plate for 30 minutes at room temperature. LI-COR blocking buffer was removed and cells were incubated overnight at cold room with 50 μL anti-ER rabbit monoclonal antibody (Thermo scientific MA1-39540) diluted at 1:1000 in LI-COR blocking buffer containing 0.1% tween-20. Wells which were treated with blocking buffer but no antibody were used as background control. Wells were washed twice with PBS (0.1% tween-20) and incubated at 37° C. for 60 minutes in LI-COR (0.1% tween-20) containing goat anti-rabbit antibody Alexa 488 (1:1000) and Syto-64 a DNA dye (2 μM final concentration). Cells were then washed 3 times in PBS and scanned in ACUMEN explorer (TTP-Labtech). Integrated intensities in the green fluorescence and red fluorescence were measured to determine the levels of ERα and DNA respectively.
The degradation activity with respect to estrogen receptors in this test is given by the concentration which degrades 50% of the estrogen receptor (or IC50) in nM.
The % of ERα levels decrease were determined as follows: % inhibition=100*(1−(sample−fulvestrant: DMSO−fulvestrant)).

CYP3A4 = CYP3A4 induction potential for ADME profile evaluation (CYP3A4 mRNA by RT-PCR in primary human hepatocytes); format: in vitro ADME; conditions: approximately 48 hours, 0.3-10 μM, relative to 10 μM rifampicin
Experimental: Such test is based, for example, on the quantification of CYP3A4 mRNA induction performed by RT-PCR analysis. Said % Emax may be calculated as detailed in the illustrative part under the following formula:
[formula] • ECompound: relative fold mRNA expression following treatment with test compound, • EPositive control: relative fold mRNA expression following reference inducer i.e., 10 μM rifampicin, • EVehicle control: relative fold mRNA expression following vehicle treatment i.e., 0.1% DMSO, and • E is the efficiency of the quantitative PCR.
Said test evaluates the potential induction effect of the tested compounds on CYP3A4 gene expression in primary cultures of human hepatocytes from one or two donors with established concentration-dependent response to the reference inducer, rifampicin.
Before seeding, cell viability was estimated using the Trypan blue dye exclusion test. Hepatocytes were seeded on collagen I-coated 96-well plates at a density of 70 000 cells/well in 100 μL of plating medium for at least 4 hours under a humidified atmosphere of CO2/air (5%/95%), at 37° C. After the cell attachment period, the plating medium was removed, and the hepatocytes were treated daily for 2 consecutive days (approximately 48 hours), with 100 μL per well of fresh culture medium containing either the vehicle control (0.1% DMSO) or the investigated compounds at four concentrations 0.3, 1, 3 and 10 μM, or rifampicin, the reference inducer at 10 μM. All incubations were performed in duplicates.
Ten mM stock solutions of the different compounds were diluted to obtain 0.3, 1 and 3 mM daughter solutions. The day of the experiment, stock solutions were diluted 1000-fold in the incubation/culture medium to achieve final concentrations of 0.3, 1, 3 and 10 μM.
After the 48-hour incubation period with the test compounds, the cell culture medium was removed, and the cells were lysed to release the RNA for CYP3A4 gene expression assessment. Quantification of CYP3A4 mRNA induction was performed by RT-PCR analysis.
Total RNA was extracted from hepatocytes using the King Fisher™ Flex Purification System with the MagMAX mirVana Total RNA Isolation kit (Thermo Fisher Scientific, USA). RNA was quantified by fluorimetry using the Quantifluor RNA System (Promega, USA) and cDNAs were synthesized from […] total RNA using the iScript Reverse Transcription Supermix for RT-qPCR from Biorad (France) at 42° C. for 30 min. cDNA samples were then diluted in water (1:5) and 5 μL of each sample was used for real-time PCR amplification by using the SYBR Green kit from Biorad (France). The following program was used: a denaturation step at 95° C. for 30 sec, and 40 cycles of PCR (denaturation, 95° C., 10 sec and annealing and extension, 58° C., 1 min). In all cases, the quality of the PCR product was assessed by monitoring a fusion step at the end of the run. Human forward and reverse primer sequences used were: 5′-CCT-GGC-ACC-CAG-CAC-AAT-3′ and 5′-GGG-CCG GAC-TCG-TCA-TAC-3′ for actin, 5′-CAC-AAA-CG-GAG-GCC-TTT-TG-3′ and 5′-ATC-CAT-GCT-GTA-GGC-CCC-AA-3′ for CYP3A4.
Cq (quantification cycle) values were determined using a multi-variable, non-linear regression model to individual well traces and then using this model an optimal Cq value was computed. Cq values are inversely proportional to the amount of target nucleic acid in the sample (i.e., lowest Cq level corresponds to the greatest amount of target nucleic acid in the sample). Cq of reference gene (in this study human actin) was also used as positive control of quantitative PCR.
The extent of induction or % of Emax, resulting from treatment with test compounds was calculated under the following formula: […]

Compound | % Degradation At 0.3 μM (ERα) [%] | CYP3A4 induction Emax (%) (CYP3A4)
Cl.O=C(O)c1ccc2c(c1)CCCC(c1ccc(F)cc1Cl)=C2c1ccc(CC2CCN(CCCF)C2)cc1 (single isomer, unassigned; isomer 1) [Compound 2, 8-(2-chloro-4-fluorophenyl)-9-(4-((1-(3-fluoropropyl)pyrrolidin-3-yl)methyl)phenyl)-6,7-dihydro-5H-benzo[7]annulene-3-carboxylic acid hydrochloride, Isomer 1] | 74 | 23
CC1(C)CCC(C2=C(c3ccc(CC4CCN(CCCF)C4)cc3)c3ccc(C(=O)O)cc3CCC2)CC1.Cl (single isomer, unassigned; isomer 1) [Compound 3, 8-(4,4-dimethylcyclohexyl)-9-(4-((1-(3-fluoropropyl)pyrrolidin-3-yl)methyl)phenyl)-6,7-dihydro-5H-benzo[7]annulene-3-carboxylic acid, Isomer 1] | 85 | 8
Cc1cc(F)ccc1C1=C(c2ccc(CC3CCN(CCC(F)F)C3)cc2)c2ccc(C(=O)O)cc2CCC1.Cl (single isomer, unassigned; isomer 1) [Compound 4, 9-(4-((1-(3,3-difluoropropyl)pyrrolidin-3-yl)methyl)phenyl)-8-(4-fluoro-2-methylphenyl)-6,7-dihydro-5H-benzo[7]annulene-3-carboxylic acid hydrochloride, Isomer 1] | 83 | 30
Cl.O=C(O)c1ccc2c(c1)CCCC(c1ccc(F)cc1C(F)(F)F)=C2c1ccc(CC2CCN(CCC(F)F)C2)cc1 (single isomer, unassigned; isomer 1) [Compound 5, 9-(4-((1-(3,3-difluoropropyl)pyrrolidin-3-yl)methyl)phenyl)-8-(4-fluoro-2-(trifluoromethyl)phenyl)-6,7-dihydro-5H-benzo[7]annulene-3-carboxylic acid hydrochloride, Isomer 1] | 80 | 13
Cc1c(Cl)cccc1C1=C(c2ccc(CC3CCN(CCC(F)F)C3)cc2)c2ccc(C(=O)O)cc2CCC1.Cl (single isomer, unassigned; isomer 1) [Compound 6, 8-(3-chloro-2-methylphenyl)-9-(4-((1-(3,3-difluoropropyl)pyrrolidin-3-yl)methyl)phenyl)-6,7-dihydro-5H-benzo[7]annulene-3-carboxylic acid hydrochloride, Isomer 1] | 81 | 8
CC1(C)CC=C(C2=C(c3ccc(CC4CCN(CCCF)C4)cc3)c3ccc(C(=O)O)cc3CCC2)CC1.Cl (single isomer, unassigned; isomer 1) [Compound 11, 8-(4,4-dimethylcyclohex-1-en-1-yl)-9-(4-((1-(3-fluoropropyl)pyrrolidin-3-yl)methyl)phenyl)-6,7-dihydro-5H-benzo[7]annulene-3-carboxylic acid hydrochloride, Isomer 1] | 90 | 11
Cc1c(C2=C(c3ccc(CC4CCN(CCCF)C4)cc3)c3ccc(C(=O)O)cc3CCC2)cccc1C(F)(F)F.Cl (single isomer, unassigned; isomer 1) [Compound 12, 9-(4-((1-(3-fluoropropyl)pyrrolidin-3-yl)methyl)phenyl)-8-(2-methyl-3-(trifluoromethyl)phenyl)-6,7-dihydro-5H-benzo[7]annulene-3-carboxylic acid hydrochloride, Isomer 1] | 90 | 34
Cl.O=C(O)c1ccc2c(c1)CCCC(c1cccc(Cl)c1C(F)(F)F)=C2c1ccc(CC2CCN(CCCF)C2)cc1 (single isomer, unassigned; isomer 1) [Compound 13, 8-(3-chloro-2-(trifluoromethyl)phenyl)-9-(4-((1-(3-fluoropropyl)pyrrolidin-3-yl)methyl)phenyl)-6,7-dihydro-5H-benzo[7]annulene-3-carboxylic acid hydrochloride, Isomer 1] | 90 | 26
O=C(O)c1ccc2c(c1)CCCC(c1cccc(Cl)c1F)=C2c1ccc(CC2CCN(CCCF)C2)cc1 (single isomer, unassigned; isomer 1) [Compound 16, 8-(3-chloro-2-fluorophenyl)-9-(4-((1-(3-fluoropropyl)pyrrolidin-3-yl)methyl)phenyl)-6,7-dihydro-5H-benzo[7]annulene-3-carboxylic acid, Isomer 1] | 88 | 22
Cl.O=C(O)c1ccc2c(c1)CCCC(c1cccc(F)c1Cl)=C2c1ccc(CC2CCN(CCCF)C2)cc1 (single isomer, unassigned; isomer 1) [Compound 21, 8-(2-chloro-3-fluorophenyl)-9-(4-((1-(3-fluoropropyl)pyrrolidin-3-yl)methyl)phenyl)-6,7-dihydro-5H-benzo[7]annulene-3-carboxylic acid hydrochloride, Isomer 1] | 87 | 42
O=C(O)c1ccc2c(c1)CCCC(c1ccc(Cl)cc1Cl)=C2c1ccc(O[C@H]2CCN(CCCF)C2)cc1 [(C1), reference compound] | – | 93
